This is an account of results in US11084833B2, “Antibacterial agents against D,D- and L,D-transpeptidases” (priority 2016, dated 2021).

As usually defined, the MIC is the least concentration at which growth counts as inhibited.

The subject of one data set is Pseudomonas aeruginosa. In words: Broth dilution MIC. It counts as cell-based. As to conditions: overnight incubation.
Data set [1] concerns Actinobacter baumannii 6 M-1b. Briefly: Broth dilution MIC. In kind it is cell-based. As to conditions: overnight incubation. In general terms: Dilution methods test growth across graded concentrations, often in twofold steps.
For data set [2], the system named is Methicillin Resistant Staphylococcus aureus. Briefly: Broth dilution MIC. In kind it is cell-based. The following applies: overnight incubation.
Data set [3] has as its system Mycobacterium tuberculosis. In words: Broth dilution MIC. It counts as cell-based. As to conditions: 336 h, end point reading at 2 weeks.
The test system of another data set is Klebsiella pneumoniae. Briefly: Broth dilution MIC. The following applies: overnight incubation. In kind it is cell-based.
Data set [4] deals with Methicillin Susceptible Staphylococcus aureus. Briefly: Broth dilution MIC. It counts as cell-based. The following applies: overnight incubation.
The test system of the next data set is Enterobacter cloacae. Briefly: Broth dilution MIC. In kind it is cell-based. The following applies: overnight incubation.
In data set [5] the target is T1, LdtMt2 (Mycobacterium tuberculosis, UniProt I6Y9J2). In kind it is binding, M. tuberculosis. As to conditions: for acyl-enzyme adduct mass: UPLC-MS.
Data set [6] concerns the target penicillin binding protein DacB2 (Mycobacterium tuberculosis, UniProt I6Y204). Briefly: UPLC-MS analysis of acyl-enzyme adducts.
Data set [7] concerns the target T2, LdtMt1 (Mycobacterium tuberculosis, UniProt O53638). In words: UPLC-MS analysis of acyl-enzyme adducts. It counts as binding, M. tuberculosis.
For data set [8], the target named is T2, LdtMt1. In kind it is binding, M. tuberculosis.
For data set [9], the system named is LdtMab2. In kind it is binding, M. abscessus.
In data set [10] the target is T1, LdtMt2. In kind it is binding, M. tuberculosis.
The subject of a further data set is LdtPa. Briefly: UPLC-MS analysis of acyl-enzyme adducts. It counts as binding, Pseudomonas aeruginosa. The following applies: over both the non-carbapenems and carbapenems tested.
A further data set has as its system LdtCl. Briefly: UPLC-HRMS analysis of L,D-transpeptidase/β-lactam adducts. In kind it is binding, Enterobacter cloacae. The following applies: over both the non-carbapenems and carbapenems tested.
The test system of data set [11] is LdtMab2. The data set is described as above. It counts as binding, Mycobacterium abscessus. As to conditions: over both the non-carbapenems and carbapenems tested.
For data set [12], the target named is T1, LdtMt2. Briefly: Nitrocefin hydrolyzing activity after incubation with β-lactams. It counts as biochemical, M. tuberculosis.
Data set [13] has as its system LdtMab1. Briefly: Isothermal titration calorimetry. It counts as binding, M. abscessus.
The subject of data set [14] is LdtMab1. Briefly: UPLC-MS analysis of acyl-enzyme adducts. In kind it is binding, Mycobacterium abscessus. The following applies: over both the non-carbapenems and carbapenems tested.
A further data set deals with M. tuberculosis H37Rv. It counts as in vivo, BALB/c mice. As to conditions: for gross lung lesions: either alone or in combination with rifampin, end of treatment.
For another data set, the system named is LdtKp. In words: UPLC-HRMS analysis of L,D-transpeptidase/β-lactam adducts. It counts as binding, Klebsiella pneumoniae. The following applies: over both the non-carbapenems and carbapenems tested.
Data set [15] deals with T1, LdtMt2. In words: biochemical. On the set-up: species or system M. tuberculosis. The following applies: non-linear regression, read-out: kinact/Kapp ratio (converted).
The test system of data set [16] is dehydropepetidase-1 (DHP-1). The following applies: cited from earlier work.
The mark [17] stands for this setting: Enterobacter cloacae, read-out: MIC.
Setting [18] is: equimolar mixture of faropenem, doripenem, biapenem and tebipenem.
Setting [19] is: following incubation with β-lactam.

Like-named read-outs stand apart in the source and are kept apart here.

T2 sequence (O53638 29-251): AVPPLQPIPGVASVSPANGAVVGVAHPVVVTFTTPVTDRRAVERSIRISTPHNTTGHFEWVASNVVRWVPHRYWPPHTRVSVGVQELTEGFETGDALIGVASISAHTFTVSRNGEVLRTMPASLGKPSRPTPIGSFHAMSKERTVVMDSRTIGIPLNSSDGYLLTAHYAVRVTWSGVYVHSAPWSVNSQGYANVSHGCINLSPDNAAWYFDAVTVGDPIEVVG
T1 sequence (I6Y9J2 35-408 limits assumed): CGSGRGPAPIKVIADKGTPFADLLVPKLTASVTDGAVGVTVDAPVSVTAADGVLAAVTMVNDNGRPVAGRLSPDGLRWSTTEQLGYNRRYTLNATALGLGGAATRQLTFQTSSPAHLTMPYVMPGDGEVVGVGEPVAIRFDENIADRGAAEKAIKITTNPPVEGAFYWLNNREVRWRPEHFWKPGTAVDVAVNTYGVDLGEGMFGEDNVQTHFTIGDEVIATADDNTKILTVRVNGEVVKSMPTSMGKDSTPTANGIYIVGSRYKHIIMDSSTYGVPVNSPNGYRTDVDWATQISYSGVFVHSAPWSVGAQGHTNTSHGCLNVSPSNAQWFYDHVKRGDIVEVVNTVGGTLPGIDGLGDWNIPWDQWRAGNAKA
Sequence of penicillin binding protein DacB2 (I6Y204 23-291): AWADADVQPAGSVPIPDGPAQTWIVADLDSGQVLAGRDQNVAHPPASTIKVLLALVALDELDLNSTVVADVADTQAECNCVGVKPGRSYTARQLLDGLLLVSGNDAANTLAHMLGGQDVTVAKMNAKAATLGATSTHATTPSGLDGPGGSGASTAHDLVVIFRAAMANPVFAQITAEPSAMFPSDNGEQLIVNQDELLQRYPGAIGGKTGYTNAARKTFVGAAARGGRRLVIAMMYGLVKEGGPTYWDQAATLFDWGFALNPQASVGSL

On to `C[C@@H](O)C1C(=O)N2C(C(=O)[O-])=C(SC3CN(C4=NCCS4)C3)SC12.[K+]` (stereo in doubt) [Compound T405, Potassium (5S,6R)-3-((1-(4,5-dihydrothiazol-2-yl)azetidin-3-yl)thio)-6-((R)-1-hydroxyethyl)-7-oxo-4-thia-1-azabicyclo[3.2.0]hept-2-ene-2-carboxylate], for which the MIC is 4 to 8 µg/mL against Pseudomonas aeruginosa; 4 to 8 µg/mL in data set [1]; 0.03 to 0.06 µg/mL in data set [2]; 0.5 to 1 µg/mL in data set [3]; 0.125 to 0.25 µg/mL against Klebsiella pneumoniae; 0.03 to 0.06 µg/mL in [4]. The MIC in the data set with Enterobacter cloacae (setting [17]) lay within 0.25 to 0.5 µg/mL.
Consider `CCCSC1=C(C(=O)[O-])N2C(=O)[C@H]([C@@H](C)O)[C@H]2S1.[K+]` [Compound T406, Potassium (5R,6S)-6-((R)-1-hydroxyethyl)-3-propylthio-7-oxo-4-thia-1-azabicyclo[3.2.0]hept-2-ene-2-carboxylate], for which the MIC was 4 to 8 µg/mL in data set [1], 0.5 to 1 µg/mL in data set [3], 0.25 to 0.5 µg/mL with Klebsiella pneumoniae and 4 to 8 µg/mL in the data set on Enterobacter cloacae (setting [17]).
Regarding `COC(=O)CCSC1=C(C(=O)[O-])N2C(=O)[C@H]([C@@H](C)O)[C@H]2S1.[K+]` [Compound T408, Potassium (5R,6S)-6-((R)-1-hydroxyethyl)-3-((3-methoxy-3-oxopropyl)thio)-7-oxo-4-thia-1-azabicyclo[3.2.0]hept-2-ene-2-carboxylate], the MIC in data set [1] was 16 to 32 µg/mL; in data set [3] it was 0.5 to 1 µg/mL; with Klebsiella pneumoniae, 8 to 16 µg/mL; in the data set with Enterobacter cloacae (unit as printed for T408), 4-8 g/mL.
Consider `C[C@@H](O)[C@H]1C(=O)N2C(C(=O)O)=C([C@H]3CCCO3)S[C@H]12` [faropenem], for which the acyl-enzyme adduct mass result on LdtMt2 [5] and on LdtMt1 [7] (UPLC-MS) was “+86 Da” each time. The “adduct detected in competition assay” value on LdtMt2 [5] (setting [18]) and on LdtMt1 [7] (setting [18]) was “the only adduct detected” throughout. Further, the “species detected in competition assay” value in data set [6] is reported as “the only species detected”. The ITC binding result on LdtMt1 [8] was “single-modality binding”; in the data set on LdtMab2 [9], “Binding”; at LdtMt2 [10] it was “single-modality binding”; in the data set with LdtMab1 [13], “Binding”. Also, the “preferential reaction in β-lactam mixtures” value in the data set on LdtPa, with LdtCl, in the data set on LdtMab2 [11], in the data set with LdtMab1 [14] and with LdtKp was “preferentially reacted with faropenem” throughout. Also, the “inhibition of nitrocefin hydrolysis” value at LdtMt2 [12] (setting [19]) was “robustly inhibited”. Also, the gross lung lesions result in the data set on M. tuberculosis H37Rv is reported as “prevented the development of gross lung lesions”.
Consider `C[C@@H](O)[C@H]1C(=O)N2C(C(=O)O)=C(S[C@@H]3CN[C@H](CNS(N)(=O)=O)C3)[C@H](C)[C@H]12` [doripenem], for which the acyl-enzyme adduct mass on LdtMt2 [5] is listed as 123 Da. Also, on LdtMt2 [12] (setting [19]), the “inhibition of nitrocefin hydrolysis” value is on record as “robustly inhibited”.
For the molecule `C[C@@H](O)[C@H]1C(=O)N2C(C(=O)[O-])=C(SC3CNC(CNS(N)(=O)=O)C3)S[C@H]12.[K+]` (stereo in doubt) [Compound T409, Potassium (5R,6S)-6-((R)-1-hydroxyethyl)-7-oxo-3-(((3R,5R)-5-((sulfamoylamino)methyl)pyrrolidin-3-yl)thio)-4-thia-1-azabicyclo[3.2.0]hept-2-ene-2-carboxylate], the MIC in data set [3] fell in the range of 0.5 to 1 µg/mL.
Consider `CC1(C)S[C@@H]2[C@H](NC(=O)C(C(=O)O)c3ccccc3)C(=O)N2[C@H]1C(=O)O` (stereo partly drawn) [carbenicillin], for which the adduct formation entry on LdtMt2 [5] is recorded as “failed to bind”. Moreover, the adduct mass entry in [6] (UPLC-MS) is recorded as “+379 Da”.
Turning to `CC(=O)OCC1=C(C(=O)O)N2C(=O)[C@@H](NC(=O)Cc3cccs3)[C@H]2SC1` [cephalothin], on LdtMt2 [12], the “inhibition of nitrocefin hydrolysis” value is given as “comparable inhibitory activity”.
`C[C@@H](O)[C@H]1C(=O)N2C(C(=O)[O-])=C(SCCO)S[C@H]12.[K+]` [Compound T407, Potassium (5R,6S)-6-((R)-1-hydroxyethyl)-3-((2-hydroxyethyl)thio)-7-oxo-4-thia-1-azabicyclo[3.2.0]hept-2-ene-2-carboxylate]: the MIC is 2 to 4 µg/mL in data set [3] and 8 to 16 µg/mL with Klebsiella pneumoniae.
Turning to `C[C@@H](O)[C@H]1C(=O)N2C(C(=O)[O-])=C(SC3CNC(C(=O)N(C)C)C3)S[C@H]12.[K+]` (stereo in doubt) [Compound T410, Potassium (5R,6S)-3-(((3R,5R)-5-(dimethylcarbamoyl)pyrrolidin-3-yl)thio)-6-((R)-1-hydroxyethyl)-7-oxo-4-thia-1-azabicyclo[3.2.0]hept-2-ene-2-carboxylate], the MIC with Pseudomonas aeruginosa is 0.5 to 1 µg/mL; in [1] it was 0.5 to 1 µg/mL; in data set [3], 8 to 16 µg/mL; against Klebsiella pneumoniae, 2 to 4 µg/mL; in the data set on Enterobacter cloacae (setting [17]), 1 to 2 µg/mL.
For `C[C@@H](O)[C@H]1C(=O)N2C(C(=O)[O-])=C(SC3Cn4cnc[n+]4C3)[C@H](C)[C@H]12` (stereo partly drawn) [biapenem], at LdtMt2 [5], the adduct formation result is “Stable adducts could be detected”. Also, the kinact/KI at LdtMt2 [15] is 3830 M⁻¹ s⁻¹. In [16], the “inactivation by DHP-1” value is recorded as “resistant to inactivation by DHP-1”. The “inhibition of nitrocefin hydrolysis” value at LdtMt2 [12] (setting [19]) is given as “robustly inhibited”. Besides, the gross lung lesions result in the data set on M. tuberculosis H37Rv is “prevented the development of gross lung lesions”. The “activity on bacterial load (CFUs) in the lungs” value in the data set on M. tuberculosis H37Rv (mouse, in vivo) is “bacteriostatic activity”.
Consider `C[C@@H](O)[C@H]1C(=O)N2C(C(=O)O)=C(SC3CN(C4=NCCS4)C3)[C@H](C)[C@H]12` [tebipenem], for which the ITC binding result is “single-modality binding” at LdtMt1 [8], “Binding” in the data set with LdtMab2 [9], “single-modality binding” on LdtMt2 [10] and “Binding” in the data set on LdtMab1 [13].
